The values that follow come from patent publication US11858905B1, “Cathepsin L inhibitors” (priority 2023, dated 2024).

The subject of one series is RSV. The note with it: RSV infected mice; cited from earlier work.
The next series relates to SARS-CoV-2 PsVs. Description: microbe, parasite or virus in culture. Format: cell-based. The note with it: for activity at 0.5 µM / activity at 5 µM: Severe acute respiratory syndrome coronavirus 2, Vero C1008, 24 h; for activity at 0.5 µM: read-out: % Infection rate at 500 nM; for activity at 5 µM: read-out: % Infection rate at 5 uM.
For a further series, the target named is human CatL (Homo sapiens (Human), UniProt P07711). The series can be described thus: Human Cathepsin L (CatL) enzymatic assay. The series is classed as biochemical. How it is done: Human Cathepsin L (CatL) Enzymatic Assay
60 μL of the compounds were added to 384-well dilution plate. The compound solution was diluted for 1:3 in succession in DMSO for each column for 10 pts. 0.05 μL diluted compound solution was added in each row to 384 assay plates (Corning 4514) using Echo (LABCYTE 655), each column containing 2 replicates. 5 μL working solution of human CatL enzyme (Abcam #ab81780) was added to 384-well assay plate, centrifuge 1000 rpm for 1 min. The mixture was incubated at […] for 15 min, then add 5 μL working solution of CatL substrate (Genscript #C7360HB140_5) to initiate the reaction (CatL: 0.05 nM, Substrate: 500 nM). Incubate at […] for 30 min. Reading Ex370 nm and Em460 nm fluorescence signals with BMG CLARIO Star Plusaucu. Percent inhibition for each compound was calculated and IC50 (half maximal inhibitory concentration) was fitted from non-linear regression by XLfit 5.5.0.

Setting [1] is: CatL 0.05 nM, substrate 500 nM, pH 5.5, read-out: Enzymatic inhibition IC50.
The mark [2] stands for this setting: summary of Table 2, read-out: IC50 for inhibiting CatL.

Like-named read-outs stand apart in the source and are kept apart here.

Chain of human CatL (P07711 whole entry, looked up): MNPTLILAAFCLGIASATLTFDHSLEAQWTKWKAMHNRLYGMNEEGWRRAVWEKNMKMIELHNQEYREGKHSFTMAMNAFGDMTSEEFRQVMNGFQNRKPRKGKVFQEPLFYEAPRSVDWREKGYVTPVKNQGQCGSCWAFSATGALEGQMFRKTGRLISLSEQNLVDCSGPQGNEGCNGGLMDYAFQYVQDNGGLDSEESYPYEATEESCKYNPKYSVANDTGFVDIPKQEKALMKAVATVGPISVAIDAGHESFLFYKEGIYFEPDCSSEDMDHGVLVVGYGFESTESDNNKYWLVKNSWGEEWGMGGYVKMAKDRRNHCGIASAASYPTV

In the case of `NC(=O)c1ncn([C@@H]2O[C@H](CO)[C@@H](O)[C@H]2O)n1` [ribavirin], in the series on RSV, the airway hyperresponsiveness entry was “prevented airway hyperresponsiveness” and the viral clearance entry is given as “enhanced viral clearance”.
Usually IC50 stands for the concentration at which inhibition is half-maximal. Turning to `Cc1cc(-c2ccc3nc(C[C@H](NC(=O)c4cc(C5(C)CC5)nn4C4CC4)C(=O)NC4(C#N)CC4)oc3c2)ccn1` [Compound 38, (S)—N-(1-((1-cyanocyclopropyl)amino)-3-(6-(2-methylpyridin-4-yl)benzo[d]oxazol-2-yl)-1-oxopropan-2-yl)-1-cyclopropyl-3-(1-methylcyclopropyl)-1H-pyrazole-5-carboxamide], in the series on SARS-CoV-2 PsVs, the activity at 0.5 µM worked out at 34% and the activity at 5 µM was 1%. In addition, the IC50 on human CatL (setting [1]) stood at 1.7 nM.
Take `N#CC1(NC(=O)[C@H](Cc2nc3ccccc3o2)NC(=O)c2cn(C3CC3)nc2C(F)(F)F)CC1` [Compound 18, (S)—N-(3-(benzo[d]oxazol-2-yl)-1-((1-cyanocyclopropyl)amino)-1-oxopropan-2-yl)-1-cyclopropyl-3-(trifluoromethyl)-1H-pyrazole-4-carboxamide]: in the series on SARS-CoV-2 PsVs, the activity at 0.5 µM came out at 92% and the activity at 5 µM is 72.6%. Also, on human CatL (setting [1]), the IC50 stood at 50.7 nM.
Turning to `N#CC1(NC(=O)[C@H](Cc2nc3cc(C(F)(F)F)ccc3o2)NC(=O)c2cccc(Cl)c2)CC1` [Compound 10, (S)-3-chloro-N-(1-((1-cyanocyclopropyl)amino)-1-oxo-3-(5-(trifluoromethyl)benzo[d]oxazol-2-yl)propan-2-yl)benzamide], in the series with SARS-CoV-2 PsVs, the activity at 0.5 µM was 97% and the activity at 5 µM stood at 96%. Besides, the 50% inhibitory concentration (IC50) at human CatL (setting [1]) came to 51.5 nM.
Consider `CC(C)(C)c1cc(C(=O)N[C@@H](Cc2nc3cc(F)cc(Cl)c3o2)C(=O)NC2(C#N)CC2)n(C2CC2)n1` [Compound 21, (S)-3-(tert-butyl)-N-(3-(7-chloro-5-fluorobenzo[d]oxazol-2-yl)-1-((1-cyanocyclopropyl)amino)-1-oxopropan-2-yl)-1-cyclopropyl-1 H-pyrazole-5-carboxamide], for which, in the series with SARS-CoV-2 PsVs, the activity at 0.5 µM came out at 60% and the activity at 5 µM came to 12%. Also, at human CatL (setting [1]), the IC50 was 8.2 nM.
The like results for `N#CC1(NC(=O)[C@H](Cc2nc3ccc(Cl)cc3o2)NC(=O)c2cccc(Cl)c2)CC1` [Compound 9, (S)-3-chloro-N-(3-(6-chlorobenzo[d]oxazol-2-yl)-1-((1-cyanocyclopropyl)amino)-1-oxopropan-2-yl)benzamide] were, in that order, 97%, 73% and 30.5 nM.
In the same order, the values of `N#CC1(NC(=O)[C@H](Cc2nc3ccc(C4=CCN(CC(F)F)CC4)cc3o2)NC(=O)c2cccc(Cl)c2)CC1` [Compound 28, (S)-3-chloro-N-(1-((1-cyanocyclopropyl)amino)-3-(6-(1-(2,2-difluoroethyl)-1,2,3,6-tetrahydropyridin-4-yl)benzo[d]oxazol-2-yl)-1-oxopropan-2-yl)benzamide] are 70%, 38% and 12.3 nM.
On to `Cc1cccc(C(=O)N[C@@H](Cc2nc3ccccc3o2)C(=O)NC2(C#N)CC2)n1` [Compound 14, (S)—N-(3-(benzo[d]oxazol-2-yl)-1-((1-cyanocyclopropyl)amino)-1-oxopropan-2-yl)-6-methylpicolinamide], for which, in the series with SARS-CoV-2 PsVs, the activity at 0.5 µM turned out to be 103% and the activity at 5 µM was determined as 97%. The IC50 at human CatL (setting [1]) was 534 nM.
Take `N#CC1(NC(=O)[C@H](Cc2nc3c(Br)cccc3o2)NC(=O)c2cccc(Cl)c2)CC1` [Compound 2, (S)—N-(3-(4-bromobenzo[d]oxazol-2-yl)-1-((1-cyanocyclopropyl)amino)-1-oxopropan-2-yl)-3-chlorobenzamide]: the activity at 0.5 µM in the series on SARS-CoV-2 PsVs was 55%. Further, the activity at 5 µM with SARS-CoV-2 PsVs came to 12%. Further, the IC50 on human CatL (setting [1]) was 7.5 nM; at human CatL (setting [2]), less than 10 nM.
For `N#CC1(NC(=O)[C@H](Cc2nc3cccc(Br)c3o2)NC(=O)c2cccc(Cl)c2)CC1` [Compound 3, (S)—N-(3-(7-bromobenzo[d]oxazol-2-yl)-1-((1-cyanocyclopropyl)amino)-1-oxopropan-2-yl)-3-chlorobenzamide], in the series on SARS-CoV-2 PsVs, the activity at 0.5 µM came to 65% and the activity at 5 µM amounted to 10%. The IC50 on human CatL (setting [1]) amounted to 5.9 nM. Besides, at human CatL (setting [2]), the IC50 is less than 10 nM.
On to `Cc1cc(-c2ccc3nc(C[C@H](NS(=O)(=O)c4cccc(Br)c4)C(=O)NCC#N)oc3c2)ccn1` [Compound 36, (S)-2-((3-bromophenyl)sulfonamido)-N-(cyanomethyl)-3-(6-(2-methylpyridin-4-yl)benzo[d]oxazol-2-yl)propanamide], for which, in the series on SARS-CoV-2 PsVs, the activity at 0.5 µM amounted to 110% and the activity at 5 µM was 125%. In addition, at human CatL (setting [1]), the IC50 turned out to be 79.3 nM.
In the same order, the values of `CC(C)(C)c1cc(C(=O)N[C@@H](Cc2nc3ccc(Br)cc3o2)C(=O)NC2(C#N)CC2)n(C2CC2)n1` [Compound 33, (S)—N-(3-(6-bromobenzo[d]oxazol-2-yl)-1-((1-cyanocyclopropyl)amino)-1-oxopropan-2-yl)-3-(tert-butyl)-1-cyclopropyl-1H-pyrazole-5-carboxamide] are 39%, 5.9% and 2.9 nM.
For the compound `CC(C)C[C@H](NC(=O)[C@H]1O[C@@H]1C(=O)O)C(=O)NCCCCN=C(N)N` [Compound E64, E64], in the series with RSV, the airway hyperresponsiveness entry was “prevented airway hyperresponsiveness” and the viral clearance result was “enhanced viral clearance”.
With `COCCN1CC=C(c2ccc3nc(C[C@H](NC(=O)c4cc(C(C)(C)C)nn4C4CC4)C(=O)NCC#N)oc3c2)CC1` [Compound 45, (2S)-2-[(5-tert-butyl-2-cyclopropylpyrazol-3-yl)formamido]-N-(cyanomethyl)-3-{6-[1-(2-methoxyethyl)-3,6-dihydro-2H-pyridin-4-yl]-1,3-benzoxazol-2-yl}propanamide], in the series on SARS-CoV-2 PsVs (500 nM), the “protection of cells from pseudovirus infection at 500 nM” value was “nearly full protection”. Moreover, in the series on SARS-CoV-2 PsVs, the activity at 0.5 µM was found to be 7% and the activity at 5 µM came to 0.02%. The IC50 at human CatL (setting [1]) is 2.5 nM.
As for `N#CC1(NC(=O)[C@H](Cc2nc3ccc(C(F)(F)F)cc3o2)NC(=O)c2cccc(Cl)c2)CC1` [Compound 11, (S)-3-chloro-N-(1-((1-cyanocyclopropyl)amino)-1-oxo-3-(6-(trifluoromethyl)benzo[d]oxazol-2-yl)propan-2-yl)benzamide], in the series with SARS-CoV-2 PsVs, the activity at 0.5 µM is 86% and the activity at 5 µM came to 81%. Besides, the IC50 at human CatL (setting [1]) worked out at 94.6 nM.
As to `CC(C)(C)c1cc(C(=O)N[C@@H](Cc2nc3ccc(-c4ccc(N)nc4)cc3o2)C(=O)NC2(C#N)CC2)n(C2CC2)n1` [Compound 34, (S)—N-(3-(6-(6-aminopyridin-3-yl)benzo[d]oxazol-2-yl)-1-((1-cyanocyclopropyl)amino)-1-oxopropan-2-yl)-3-(tert-butyl)-1-cyclopropyl-1H-pyrazole-5-carboxamide], in the series on SARS-CoV-2 PsVs, the activity at 0.5 µM is 41% and the activity at 5 µM amounted to 0.9%. The IC50 at human CatL (setting [1]) came to 0.6 nM.
